As a reminder, the melting point is the temperature, or range, at which the solid turns liquid.

We go through 34 molecules from a melting point compilation (Tetko et al.; mined from patent text by program, amines drawn as free bases though some values may be those of a salt).

For the molecule `CCC(=NOc1ccc(F)cc1)c1cc(Cl)ccc1NS(=O)(=O)C(F)(F)F`, the melting point lay within 47 to 48 °C. On to `COC(=O)c1ccc(CC(=O)Nc2cc(Cl)ccc2N2CCCCC2)cc1`, for which the melting point lay within 156 to 158 °C. For `C#CCOc1cc(-n2c(=O)cc(C(F)(F)F)n(C)c2=O)c(F)cc1Br` the value was 134 °C. With `Cc1ccccc1N1CNC(=O)C12CCN(C(=O)c1cc(C(F)(F)F)cc(C(F)(F)F)c1)CC2`, the melting point lay within 164 to 168 °C. For `Cc1[nH]cc(C(N)=O)c(=O)c1I`, the melting point lay in the range of 296 to 298 °C. Next, `Cc1c(OCCCO)ccnc1CO`: 65 to 70 °C. For `CCOC(=O)C1=Cc2ccc(O)cc2OCC1` the value was 131 to 132 °C; for `O=c1[nH]c2ccccc2n1CCCCCCN1CCN(C(c2ccccc2)c2ccccc2)CC1`, 190 °C; for `CC(=O)SCC(Cc1ccccc1)C(=O)Nc1cc(Cl)ccc1C(=O)O` (centres undefined), 143 to 144 °C. Next, `CC(C(=O)O)c1cccc(C2(c3ccccc3)OCCO2)c1` (centres undefined): 91 to 94 °C; `CCCCN(Cc1ccc(-c2ccccc2-c2nnn[nH]2)cc1)c1ncncc1C(=O)OCC(=O)OC`: 65 to 80 °C. With `N#Cc1cnn(-c2nc(Cl)c(C(F)(F)F)cc2Cl)c1Br`, the melting point lay in the range of 121 to 122 °C. Next, `COc1cc(-n2ccc(C(F)(F)F)cc2=O)c(F)cc1C#N`: 194 to 196 °C. For `NC(CN1C(=O)c2ccccc2C1=O)=NO` the value was 192 to 195 °C; for `Cc1c(NC(=O)c2ccc(-c3ccccc3)c(F)c2)ccc2cc(CN3CCCC3)cnc12`, 156 to 158 °C. For `CSc1nccc(-c2cccc(C(F)(F)F)c2)n1` the value was 89 to 90 °C. In the case of `N#CCOc1cccc2[nH]c3ccccc3c12`, the melting point came out at 120 °C.

With `COc1cc(OC)nc(NC(=O)NS(=O)(=O)c2ccccc2Cc2nnc(SC)s2)n1`, the melting point lay in the range of 171 to 175 °C. For `COc1cc(OC)c(-c2cccs2)cc1/C=C/C(=O)c1ccc(S(=O)(=O)Nc2ccc(C(F)(F)F)cn2)cc1` the value was 228 to 229 °C; for `CCOC(=O)C(NC(C)=O)(C(=O)OCC)C1=Nc2ccc(Cl)cc2C(c2ccccc2F)=NC1`, 150 to 180 °C.

With `CC(=O)Nc1ccc(NCCNS(C)(=O)=O)cc1`, the melting point was 130 °C.

On to `Cn1cnc2nc(-c3cc(C(C)(C)C)c(O)c(C(C)(C)C)c3)nn2c1=S`, for which the melting point was > 300 °C. For `O=C(NCCC12CC3CC(CC(C3)C1)C2)c1cc(-c2cccnc2C(=O)O)ccc1Cl` the value was 108 to 111 °C; for `Cc1cc(-n2ccnc2)c2cccc(OCc3c(Cl)ccc(S(=O)(=O)N4CCC[C@H]4C(=O)N4CCN(c5ccncc5)CC4)c3Cl)c2n1`, 136 °C; for `CCOCc1nc2c(N)nc3ccccc3c2n1CC1(OCCS(C)(=O)=O)CCCC1`, 163 to 165 °C. Next, `CC(C)c1cc(CCCOc2nn(C)cc2CC(=O)O)n(Cc2ccc(Cl)cc2Cl)n1`: 67 to 68 °C; `COc1ccc(C2(O)OC(=O)C(c3cc(OC)c4c(c3)OCO4)=C2CC2CCCC2)cc1C` (centres undefined): 144 to 145 °C.

On to `COC(=O)c1ccc([N+](=O)[O-])c(OCC(N)=O)c1`, for which the melting point lay in the range of 138 to 139 °C.

Molecule `COc1cc2c(c3c1OC(C)(C)C3)C(c1cccc(Nc3cccnc3)c1)=NC(C)(C)C2` had a melting point of 204 to 205 °C. Next, `O=C(Nc1nc(C(Cl)(Cl)Cl)ns1)c1ccccc1F`: 149 °C. For `COCCOC(=O)C1=C(C)Nc2cc[nH]c(=O)c2C1c1ccccc1[N+](=O)[O-]` (centres undefined) the value was 265 °C; for `CNC(=O)[C@@H]1C[C@@H](OC)CN1S(=O)(=O)c1ccc(Cl)c(COc2cccc3c2NC(C)(C)C=C3n2cncn2)c1Cl`, 73 °C; for `CN1CC(c2ccc(Cl)cc2)=NN(c2ccc(Cl)cc2)C1=O`, 174 to 176 °C. For `OC(COCC1CNCCO1)c1ccc2ccccc2c1` (centres undefined) the value was 141 to 144 °C.
